Data on 4 molecules can be found in patent publication US11026381B2, “Method for producing haploid, dihaploid and doubled haploid plants by isolated microspore culture” (Vilmorin & Cie, priority 2015, dated 2021).

One test has as its system globular embryos. The test is described as follows: Elongation of globular embryos (bilayer culture system). The following applies: in liquid embryo culture medium. It counts as cell-based, Cucumis sativus. An excerpt:
In one embodiment, the LECM comprises one or more HDACi and/or one or more polyamines, preferably both HDACi and polyamine. The HDACi and/or the polyamine can be selected from the above lists, and can be present in any of the aforementioned quantities, in the LECM. In certain embodiments, the LECM further comprises plant growth regulators, in particular selected from auxins, cytokinins, gibberellins, abscisic acid, and mixtures thereof. In a preferred embodiment, the LECM comprises abscisic acid, in an amount effective to enable the development of the embryos. In particular, the LECM comprises from 0.5 to 5 ppm abscisic acid, still preferably from 1 to 2 ppm abscisic acid.
Globular embryos are visible after 20 to 40 days of culture in MEDM medium. To obtain elongated embryos, the inventors have used a bilayer culture system on a rotary shaker at 50-70 rpm in the dark for about 30 day, which has enabled the elongation of the embryos (FIG. 2E to 2G). The bilayer culture system is made of two layers, one lower solid medium made of MEEM with activated charcoal and solidified with 7 g/L agar (see Table 7) and one upper liquid medium, still made of MEDM supplemented with 1-2 ppm abscisic acid and containing the embryos to be elongated.

For another test, the system named is isolated microspores. The test is described as follows: Test of various compounds within the IMC media (all with SAHA 10 μM). Particulars: in association with SAHA. It counts as cell-based, Cucumis sativus. The method, then: Isolated microspores are obtained according to the method described in Example 2, and cultured. […] All media comprise M404 basal medium and carbohydrates as in the MEIM composition described in Table 7, supplemented with 10 μM SAHA plus various other additional compounds. “Event” represents embryogenic callus or embryos.
The microspore cultures are evaluated for their production of multicellular structures and/or normal embryos.

Test [1] deals with isolated microspores of Cucumis sativus. The test is described as follows: Isolated microspore culture (IMC) of cucumber with HDACi and/or polyamine: formation and classification of multicellular structures. It counts as cell-based. The following applies: for Classification of the multicellular structures / Response (% of formation of multicellular structures): no polyamine. The procedure: The solution of microspore is diluted to a concentration of about 30,000-150,000 cells/mL using a haemocytometer to count the microspore density. This is done in a Microspore Embryogenesis Induction Medium (MEIM), which components are described in Table 7. The solution is aliquoted by 4-6 mL into 60 mm×50 mm petri plates and sealed, for a heat shock of 24-72 hour at 30-33° C. in the dark.
The isolated microspores are then cultured in the dark at 22-28° C. for about four to five weeks until globular embryos can be seen by bare eyes.
The MEIM medium complemented with polyamine is referred to as a Microspore embryo development medium (MEDM) which components are described in Table 7.
One will note that the Response % is the percentage of formation of multicellular structures, not the analysis or classification of such structures as normal or abnormal. The last column (classification of the multicellular structures) reflects the observation of the multicellular structures according to criteria which defines whether they are normal or abnormal, i.e. uniformity of the cells, and compactness of the multicellular structures.

Regarding `CC1=CC(=O)CC(C)(C)[C@@]1(O)/C=C/C(C)=C\C(=O)O` [Abscisic acid, abscisic acid], the “effect on elongation of the embryos” value with globular embryos was “positive effect”.

As for `NCCCCN` [Putrescine, putrescine], the “development of normal embryos from the isolated microspores” value with isolated microspores is listed as “enable the development of normal embryos”.

Turning to `O=C(CCCCCCC(=O)Nc1ccccc1)NO` [SAHA, suberoylanilide hydroxamic acid], the “Classification of the multicellular structures” value in test [1] (cultivar HMX4453, SAHA 10 μM) is given as “Abnormal”; in test [1] (cultivar PI518848, SAHA 5 μM), “Abnormal”; in test [1] (cultivar PI518848, SAHA 10 μM) it was “Abnormal”. For the same molecule, the “Response (% of formation of multicellular structures)” value is on record as 9.6% in test [1] (cultivar HMX4453, SAHA 10 μM); 13.7% in test [1] (cultivar PI518848, SAHA 5 μM); 17.3% in test [1] (cultivar PI518848, SAHA 10 μM). Besides, the multicellular microspore formations result in test [1] (isolated microspore cultures with SAHA but without polyamine) is listed as “more present but are abnormal”.

As for `CC(/C=C/C(=O)NO)=C\[C@@H](C)C(=O)c1ccc(N(C)C)cc1` [TSA, trichostatin A], in test [1] (another HDACi tested in isolated microspore culture), the “response compared with SAHA” value is given as “lower response than for the SAHA”. In test [1] (cultivar PI518848, TSA 0.5 μM), the “Classification of the multicellular structures” value was “Abnormal” and the “Response (% of formation of multicellular structures)” value was determined as 4.3%.
